Source: patent US12668600B2 (Kumquat Biosciences Inc., priority 2023, dated 2026)
pIC50: −log10 of the molar value.

Assays:
Format in all cases: biochemical
KRAS G12V = biological target: T1, KRAS G12V (Homo sapiens, UniProt P01116, G12V); test: HTRF KRAS-SOS1 interaction assay, KRAS G12V; details: binned ≤2 μM / >2 μM, read-out: Inhibition of KRAS G12V (IC50)
T1 construct: made in house; host or cells: E. coli, e.g. BL21 (DE3)
How it was run: (§1)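 GST-KRAS + anti-GST-Eu; His-hSOS1 + anti-6His-XL665; cpd in DMSO, duplicate, 10–0.01 μM; ~10 min incubation; HTRF ex 337/em 620, 665 nm; IC50 fitted on 665/620 ratio.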

KRAS G12D = biological target: T2, KRAS G12D (Homo sapiens, UniProt P01116, G12D); test: HTRF KRAS-SOS1 interaction assay, KRAS G12D; details: binned ≤2 μM / >2 μM, read-out: Inhibition of KRAS G12D (IC50)
T2 construct: made in house; host or cells: E. coli, e.g. BL21 (DE3)
T2 sequence (P01116 1-188 isoform P01116-2 G12D): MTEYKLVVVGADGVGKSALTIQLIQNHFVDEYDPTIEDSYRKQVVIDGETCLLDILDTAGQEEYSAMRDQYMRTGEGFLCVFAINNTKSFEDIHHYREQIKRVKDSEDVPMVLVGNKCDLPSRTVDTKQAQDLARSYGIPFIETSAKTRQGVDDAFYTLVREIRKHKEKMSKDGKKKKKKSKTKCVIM
How it was run: as §1

KRAS WT = biological target: T3, KRAS WT (Homo sapiens, UniProt P01116); test: HTRF KRAS-SOS1 interaction assay, wildtype KRAS; details: binned ≤2 μM / >2 μM, read-out: Inhibition of KRAS WT (IC50)
T3 construct: made in house; host or cells: E. coli, e.g. BL21 (DE3)
T3 sequence (P01116 1-188 isoform P01116-2): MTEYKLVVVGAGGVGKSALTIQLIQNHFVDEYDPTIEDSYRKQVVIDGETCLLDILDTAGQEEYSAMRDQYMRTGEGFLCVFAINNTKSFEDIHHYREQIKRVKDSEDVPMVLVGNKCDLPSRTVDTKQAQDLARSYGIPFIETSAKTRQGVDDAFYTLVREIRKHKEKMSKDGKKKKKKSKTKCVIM
How it was run: as §1

KRAS G12S = biological target: T4, KRAS G12S (Homo sapiens, UniProt P01116, G12S); test: HTRF KRAS-SOS1 interaction assay, KRAS G12S; details: binned ≤2 μM / >2 μM, read-out: Inhibition of KRAS G12S (IC50)
T4 construct: made in house; host or cells: E. coli, e.g. BL21 (DE3)
T4 sequence (P01116 1-188 isoform P01116-2 G12S): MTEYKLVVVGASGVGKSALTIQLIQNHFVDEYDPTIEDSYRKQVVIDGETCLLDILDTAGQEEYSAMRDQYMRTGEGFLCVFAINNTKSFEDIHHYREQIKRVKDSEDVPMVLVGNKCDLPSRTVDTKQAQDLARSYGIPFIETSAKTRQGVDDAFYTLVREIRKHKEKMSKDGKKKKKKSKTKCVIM
Source text: This assay can be also used to assess a selective inhibition or reduction of signaling output of a mutant Ras protein relative to a wildtype, or relative to a different mutant Ras protein. For example, the equilibrium interaction of wildtype KRAS or K-Ras mutant (e.g., wildtype or a mutant thereof) with SOS1 (e.g., hSOS1) can be assessed as a proxy or an indication for the ability of a subject compound to bind and inhibit Ras protein. The HTRF assay detects from (i) a fluorescence resonance energy transfer (FRET) donor (e.g., antiGST-Europium) that is bound to GST-tagged K-Ras mutant to (ii) a FRET acceptor (e.g., anti-6His-XL665) bound to a His-tagged hSOS1.
The assay buffer can contain ˜5 mM HEPES pH 7.4, ˜150 mM NaCl, ˜1 mM DTT, 0.05% BSA and 0.0025% (v/v) Igepal. A Ras working solution is prepared in an assay buffer containing typically a suitable amount of the protein construct (e.g., GST-tagged K-Ras mutant) and the FRET donor (e.g., antiGST-Eu (K) from Cisbio, France). A SOS1 working solution is prepared in an assay buffer containing suitable amount of the protein construct (e.g., His-hSOS1) and the FRET acceptor (e.g., anti-6His-XL665 from Cisbio, France). A suitable amount of the protein construct will depend on the range of activity or range of IC50 values being detected or under investigation. For detecting an IC50 within a range of 500 nM, the protein constructs of the same range of molarity can be utilized.
A fixed volume of DMSO with or without test compound is transferred into a 384-well plate. Ras working solution is added to all wells of the test plate. SOS1 working solution is added to all wells except for those that are subsequently filled with inhibitor control solution. Upon incubation for about 10 minutes or longer, the fluorescence is measured with a M1000Pro plate reader (Tecan) using HTRF detection (excitation 337 nm, emission 1:620 nm, emission 2:665 nm). Compounds are tested in duplicate at different concentrations (for example, 10 μM, 2.5 μM, 0.63 μM, 0.16 μM, 0.04 μM, 0.01 μM test compound). The ratiometric data (i.e., emission 2 divided by emission 1) is used to calculate IC50 values against Ras using GraphPad Prism (GraphPad software). Signaling output measured in terms of IC50 values can be obtained and a ratio of IC50 against one mutant relative to another mutant can be calculated.

Measured: pIC50

T1 sequence (P01116 1-188 isoform P01116-2 G12V): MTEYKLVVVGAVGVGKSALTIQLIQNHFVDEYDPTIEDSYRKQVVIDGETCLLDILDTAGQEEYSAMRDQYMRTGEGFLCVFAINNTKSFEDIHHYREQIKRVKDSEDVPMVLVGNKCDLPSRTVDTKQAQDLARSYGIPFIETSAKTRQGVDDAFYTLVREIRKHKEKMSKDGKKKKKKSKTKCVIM

N#Cc1c(N)sc2c(F)ccc(-c3c(C(F)(F)F)c4c5c(nc(OC[C@@]67CCCN6C[C@H](F)C7)nc5c3F)N([C@H](CCC(F)(F)F)c3cccnc3N)CCO4)c12 (atropisomer, axis not shown; (aS)) [Compound 614, 2-amino-4-((S)-4-((R)-1-(2-aminopyridin-3-yl)-4,4,4-trifluorobutyl)-10-fluoro-2-(((2R,7aS)-2-fluorotetrahydro-1H-pyrrolizin-7a (5H)-yl)methoxy)-8-(trifluoromethyl)-5,6-dihydro-4H-[1,4]oxazepino[5,6,7-de]quinazolin-9-yl)-7-fluorobenzo[b]thiophene-3-carbonitrile]
≥ 5.70: all assays above

C=CC[C@H](c1cccnc1N)N1CCOc2c(Cl)c(-c3ccc(F)c4sc(N)c(C#N)c34)c(F)c3nc(OC[C@@]45CCCN4C[C@H](F)C5)nc1c23 (atropisomer, axis not shown; (aS)) [Compound 683, 2-amino-4-((R)-4-((R)-1-(2-aminopyridin-3-yl)but-3-en-1-yl)-8-chloro-10-fluoro-2-(((2R,7aS)-2-fluorotetrahydro-1H-pyrrolizin-7a (5H)-yl)methoxy)-5,6-dihydro-4H-[1,4]oxazepino[5,6,7-de]quinazolin-9-yl)-7-fluorobenzo[b]thiophene-3-carbonitrile]
≥ 5.70: all assays above

CON=C1CN2CCC[C@@]2(COc2nc3c4c(c(C(F)(F)F)c(-c5ccc(F)c6sc(N)c(C#N)c56)c(F)c4n2)OCCN3[C@H](C)c2cccnc2N)C1 (mixture of isomers) [Compound 622, 2-amino-4 ((S)-4-((R)-1-(2-aminopyridin-3-yl)ethyl)-10-fluoro-2-(((S)-2-(methoxyimino)tetrahydro-1H-pyrrolizin-7a (5H)-yl)methoxy)-8-(trifluoromethyl)-5,6-dihydro-4H-[1,4]oxazepino[5,6,7-de]quinazolin-9-yl)-7-fluorobenzo[b]thiophene-3-carbonitrile]
≥ 5.70: all assays above

C=CCC(c1cccnc1N)N1CCOc2c(Cl)c(-c3ccc(F)c4sc(N)c(C#N)c34)c(F)c3nc(OC[C@@]45CCCN4C[C@H](F)C5)nc1c23 (mixture of isomers) [Compound 623, 2-amino-4-((9R)-4-(1-(2-aminopyridin-3-yl)but-3-en-1-yl)-8-chloro-10-fluoro-2-(((2R,7aS)-2-fluorotetrahydro-1H-pyrrolizin-7a (5H)-yl)methoxy)-5,6-dihydro-4H-[1,4]oxazepino[5,6,7-de]quinazolin-9-yl)-7-fluorobenzo[b]thiophene-3-carbonitrile]
≥ 5.70: all assays above

CC[S+]([O-])[C@@H]1C[C@]2(COc3nc4c5c(c(Cl)c(-c6ccc(F)c7sc(N)c(C#N)c67)c(F)c5n3)OCCN4[C@H](C)c3cccnc3N)CCC[N+]2([O-])C1 (mixture of isomers) [Compound 626, (2R,7aS)-7a-(((9-(2-amino-3-cyano-7-fluorobenzo[b]thiophen-4-yl)-4-((R)-1-(2-aminopyridin-3-yl)ethyl)-8-chloro-10-fluoro-5,6-dihydro-4H-[1,4]oxazepino[5,6,7-de]quinazolin-2-yl)oxy)methyl)-2-(ethylsulfinyl)hexahydropyrrolizine 4(1H)-oxide]
≥ 5.70: all assays above

N#Cc1c(N)sc2c(F)ccc(-c3c(C(F)(F)F)c4c5c(nc(OC[C@@]67CCCN6C[C@H](F)C7)nc5c3F)N([C@H](CCC3COCCO3)c3cccnc3N)CCO4)c12 (mixture of isomers) [Compound 648, 2-amino-4-(4-((1R)-1-(2-aminopyridin-3-yl)-3-(1,4-dioxan-2-yl)propyl)-10-fluoro-2-(((2R,7aS)-2-fluorotetrahydro-1H-pyrrolizin-7a(5H)-yl)methoxy)-8-(trifluoromethyl)-5,6-dihydro-4H-[1,4]oxazepino[5,6,7-de]quinazolin-9-yl)-7-fluorobenzo[b]thiophene-3-carbonitrile]
≥ 5.70: all assays above

CON=C1CN2CCC[C@@]2(COc2nc3c4c(c(Cl)c(-c5ccc(F)c6sc(N)c(C#N)c56)c(F)c4n2)OCCN3[C@H](C)c2cccnc2N)C1 (mixture of isomers) [Compound 653, 2-amino-4-(4-((R)-1-(2-aminopyridin-3-yl)ethyl)-8-chloro-10-fluoro-2-(((S)-2-(methoxyimino)tetrahydro-1H-pyrrolizin-7a(5H)-yl)methoxy)-5,6-dihydro-4H-[1,4]oxazepino[5,6,7-de]quinazolin-9-yl)-7-fluorobenzo[b]thiophene-3-carbonitrile]
≥ 5.70: all assays above

C[S+]([O-])CCC[C@H](c1cccnc1N)N1CCOc2c(C(F)(F)F)c(-c3ccc(F)c4sc(N)c(C#N)c34)c(F)c3nc(OC[C@@]45CCCN4C[C@H](F)C5)nc1c23 (mixture of isomers) [Compound 691, 2-amino-4-(4-((1R)-1-(2-aminopyridin-3-yl)-4-(methylsulfinyl)butyl)-10-fluoro-2-(((2R,7aS)-2-fluorotetrahydro-1H-pyrrolizin-7a(5H)-yl)methoxy)-8-(trifluoromethyl)-5,6-dihydro-4H-[1,4]oxazepino[5,6,7-de]quinazolin-9-yl)-7-fluorobenzo[b]thiophene-3-carbonitrile]
≥ 5.70: all assays above

CCO/N=C/C1CN2CCC[C@@]2(COc2nc3c4c(c(Cl)c(-c5ccc(F)c6sc(N)c(C#N)c56)c(F)c4n2)OCCN3[C@H](C)c2cccnc2N)C1 (mixture of isomers) [Compound 711, 2-amino-4-(4-((R)-1-(2-aminopyridin-3-yl)ethyl)-8-chloro-2-(((7aS)-2-((E)-(ethoxyimino)methyl)tetrahydro-1H-pyrrolizin-7a(5H)-yl)methoxy)-10-fluoro-5,6-dihydro-4H-[1,4]oxazepino[5,6,7-de]quinazolin-9-yl)-7-fluorobenzo[b]thiophene-3-carbonitrile]
≥ 5.70: all assays above
